Laboratory results as given in the supplement of paper PMC10307832.

What was measured:
Assay in all cases: relative viability (nuclei count vs DMSO), 5 days (fraction); higher = more cells survive
A-427 = tested on: A-427
Outline: (§1)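 Medians of duplicate plates are given as relative viability. That measure is the nuclei count in treated wells divided by the count in vehicle wells. Counts were taken on 4× images of lung cancer cell lines in 1536-well plates, 5 days after pin-tool dosing the day after seeding with one drug alone or a fixed anchor-drug dose plus five library-drug doses (not always all listed) in √10 steps.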

CAL-12T = tested on: CAL-12T
Outline: as §1

COR-L 105 = tested on: COR-L 105
Outline: as §1

EMC-BAC-2 = tested on: EMC-BAC-2
Outline: as §1

HARA = tested on: HARA
Outline: as §1

HCC-366 = tested on: HCC-366
Outline: as §1

HCC-827 = tested on: HCC-827
Outline: as §1

HOP-62 = tested on: HOP-62
Outline: as §1

LCLC-103H = tested on: LCLC-103H
Outline: as §1

NCI-H1355 = tested on: NCI-H1355
Outline: as §1

NCI-H1395 = tested on: NCI-H1395
Outline: as §1

NCI-H1437 = tested on: NCI-H1437
Outline: as §1

NCI-H1755 = tested on: NCI-H1755
Outline: as §1

NCI-H1792 = tested on: NCI-H1792
Outline: as §1

NCI-H1915 = tested on: NCI-H1915
Outline: as §1

NCI-H1975 = tested on: NCI-H1975
Outline: as §1

NCI-H2009 = tested on: NCI-H2009
Outline: as §1

NCI-H2228 = tested on: NCI-H2228
Outline: as §1

NCI-H23 = tested on: NCI-H23
Outline: as §1

NCI-H460 = tested on: NCI-H460
Outline: as §1

NCI-H522 = tested on: NCI-H522
Outline: as §1

NCI-H727 = tested on: NCI-H727
Outline: as §1

SK-LU-1 = tested on: SK-LU-1
Outline: as §1

SW 1573 = tested on: SW 1573
Outline: as §1

COc1cc(N2CCC(C(N)=O)CC2)ccc1Nc1nc(N)c(Cl)c(Nc2ccccc2S(=O)(=O)C(C)C)n1 [HG-5-88-01] + CC(=O)Nc1cccc(-n2c(=O)n(C3CC3)c(=O)c3c(Nc4ccc(I)cc4F)n(C)c(=O)c(C)c32)c1 [Trametinib] (partner 0.02 µM)
relative viability (A-427; first compound 0.04 µM): 0.8 | relative viability (A-427; first compound 0.1265 µM): 0.754 | relative viability (A-427; first compound 0.4 µM): 0.749 | relative viability (A-427; first compound 1.265 µM): 0.662 | relative viability (A-427; first compound 4 µM): 0.487 | relative viability (CAL-12T; first compound 0.04 µM): 0.377 | relative viability (CAL-12T; first compound 0.1265 µM): 0.378 | relative viability (CAL-12T; first compound 0.4 µM): 0.3 | relative viability (CAL-12T; first compound 1.265 µM): 0.227 | relative viability (CAL-12T; first compound 4 µM): 0.201 | relative viability (COR-L 105; first compound 0.04 µM): 0.471 | relative viability (COR-L 105; first compound 0.1265 µM): 0.423 | relative viability (COR-L 105; first compound 0.4 µM): 0.402 | relative viability (COR-L 105; first compound 1.265 µM): 0.319 | relative viability (COR-L 105; first compound 4 µM): 0.421 | relative viability (EMC-BAC-2; first compound 0.04 µM): 0.927 | relative viability (EMC-BAC-2; first compound 0.1265 µM): 0.939 | relative viability (EMC-BAC-2; first compound 0.4 µM): 0.8 | relative viability (EMC-BAC-2; first compound 1.265 µM): 0.564 | relative viability (EMC-BAC-2; first compound 4 µM): 0.632 | relative viability (HARA; first compound 0.04 µM): 1.01 | relative viability (HARA; first compound 0.1265 µM): 0.709 | relative viability (HARA; first compound 0.4 µM): 0.91 | relative viability (HARA; first compound 1.265 µM): 0.394 | relative viability (HARA; first compound 4 µM): 0.465 | relative viability (HCC-366; first compound 0.04 µM): 0.429 | relative viability (HCC-366; first compound 0.1265 µM): 0.366 | relative viability (HCC-366; first compound 0.4 µM): 0.365 | relative viability (HCC-366; first compound 1.265 µM): 0.361 | relative viability (HCC-366; first compound 4 µM): 0.243 | relative viability (HCC-827; first compound 0.04 µM): 0.529 | relative viability (HCC-827; first compound 0.1265 µM): 0.463 | relative viability (HCC-827; first compound 0.4 µM): 0.538 | relative viability (HCC-827; first compound 1.265 µM): 0.18 | relative viability (HCC-827; first compound 4 µM): 0.269 | relative viability (HOP-62; first compound 0.04 µM): 0.391 | relative viability (HOP-62; first compound 0.1265 µM): 0.411 | relative viability (HOP-62; first compound 0.4 µM): 0.345 | relative viability (HOP-62; first compound 1.265 µM): 0.317 | relative viability (HOP-62; first compound 4 µM): 0.383 | relative viability (LCLC-103H; first compound 0.04 µM): 0.693 | relative viability (LCLC-103H; first compound 0.1265 µM): 0.649 | relative viability (LCLC-103H; first compound 0.4 µM): 0.52 | relative viability (LCLC-103H; first compound 1.265 µM): 0.69 | relative viability (LCLC-103H; first compound 4 µM): 0.732 | relative viability (NCI-H1355; first compound 0.04 µM): 0.439 | relative viability (NCI-H1355; first compound 0.1265 µM): 0.351 | relative viability (NCI-H1355; first compound 0.4 µM): 0.407 | relative viability (NCI-H1355; first compound 1.265 µM): 0.298 | relative viability (NCI-H1355; first compound 4 µM): 0.323 | relative viability (NCI-H1395; first compound 0.04 µM): 1 | relative viability (NCI-H1395; first compound 0.1265 µM): 1.21 | relative viability (NCI-H1395; first compound 0.4 µM): 1.08 | relative viability (NCI-H1395; first compound 1.265 µM): 0.773 | relative viability (NCI-H1395; first compound 4 µM): 1.13 | relative viability (NCI-H1437; first compound 0.04 µM): 0.581 | relative viability (NCI-H1437; first compound 0.1265 µM): 0.56 | relative viability (NCI-H1437; first compound 0.4 µM): 0.447 | relative viability (NCI-H1437; first compound 1.265 µM): 0.475 | relative viability (NCI-H1437; first compound 4 µM): 0.333 | relative viability (NCI-H1755; first compound 0.04 µM): 0.765 | relative viability (NCI-H1755; first compound 0.1265 µM): 0.72 | relative viability (NCI-H1755; first compound 0.4 µM): 0.773 | relative viability (NCI-H1755; first compound 1.265 µM): 0.78 | relative viability (NCI-H1755; first compound 4 µM): 0.792 | relative viability (NCI-H1792; first compound 0.04 µM): 0.444 | relative viability (NCI-H1792; first compound 0.1265 µM): 0.535 | relative viability (NCI-H1792; first compound 0.4 µM): 0.401 | relative viability (NCI-H1792; first compound 1.265 µM): 0.432 | relative viability (NCI-H1792; first compound 4 µM): 0.576 | relative viability (NCI-H1915; first compound 0.04 µM): 0.327 | relative viability (NCI-H1915; first compound 0.1265 µM): 0.338 | relative viability (NCI-H1915; first compound 0.4 µM): 0.353 | relative viability (NCI-H1915; first compound 1.265 µM): 0.313 | relative viability (NCI-H1915; first compound 4 µM): 0.317 | relative viability (NCI-H1975; first compound 0.04 µM): 0.4 | relative viability (NCI-H1975; first compound 0.1265 µM): 0.446 | relative viability (NCI-H1975; first compound 0.4 µM): 0.331 | relative viability (NCI-H1975; first compound 1.265 µM): 0.329 | relative viability (NCI-H1975; first compound 4 µM): 0.247 | relative viability (NCI-H2009; first compound 0.04 µM): 0.272 | relative viability (NCI-H2009; first compound 0.1265 µM): 0.271 | relative viability (NCI-H2009; first compound 0.4 µM): 0.264 | relative viability (NCI-H2009; first compound 1.265 µM): 0.211 | relative viability (NCI-H2009; first compound 4 µM): 0.295 | relative viability (NCI-H2228; first compound 0.04 µM): 0.214 | relative viability (NCI-H2228; first compound 0.1265 µM): 0.108 | relative viability (NCI-H2228; first compound 0.4 µM): 0.268 | relative viability (NCI-H2228; first compound 1.265 µM): 0.174 | relative viability (NCI-H2228; first compound 4 µM): 0.231 | relative viability (NCI-H23; first compound 0.04 µM): 0.383 | relative viability (NCI-H23; first compound 0.1265 µM): 0.336 | relative viability (NCI-H23; first compound 0.4 µM): 0.366 | relative viability (NCI-H23; first compound 1.265 µM): 0.28 | relative viability (NCI-H23; first compound 4 µM): 0.247 | relative viability (NCI-H460; first compound 0.04 µM): 0.131 | relative viability (NCI-H460; first compound 0.1265 µM): 0.124 | relative viability (NCI-H460; first compound 0.4 µM): 0.13 | relative viability (NCI-H460; first compound 1.265 µM): 0.0779 | relative viability (NCI-H460; first compound 4 µM): 0.123 | relative viability (NCI-H522; first compound 0.04 µM): 0.683 | relative viability (NCI-H522; first compound 0.1265 µM): 0.784 | relative viability (NCI-H522; first compound 0.4 µM): 0.695 | relative viability (NCI-H522; first compound 1.265 µM): 0.705 | relative viability (NCI-H522; first compound 4 µM): 0.636 | relative viability (NCI-H727; first compound 0.04 µM): 0.379 | relative viability (NCI-H727; first compound 0.1265 µM): 0.394 | relative viability (NCI-H727; first compound 0.4 µM): 0.399 | relative viability (NCI-H727; first compound 4 µM): 0.364 | relative viability (SK-LU-1; first compound 0.04 µM): 0.394 | relative viability (SK-LU-1; first compound 0.1265 µM): 0.388 | relative viability (SK-LU-1; first compound 0.4 µM): 0.451 | relative viability (SK-LU-1; first compound 1.265 µM): 0.474 | relative viability (SK-LU-1; first compound 4 µM): 0.363 | relative viability (SW 1573; first compound 0.04 µM): 0.598 | relative viability (SW 1573; first compound 0.1265 µM): 0.533 | relative viability (SW 1573; first compound 0.4 µM): 0.581 | relative viability (SW 1573; first compound 1.265 µM): 0.464 | relative viability (SW 1573; first compound 4 µM): 0.52
